SMILES strings stand for the structures. pIC50: −log10 of the molar value.

The subject of data set [1] is platelet agregation induced by PAF. Briefly: Inhibition of platelet agregation induced by PAF. The data set is classed as cell-based, New Zealand rabbits. The settings on record: Oryctolagus cuniculus, New Zealand rabbit platelets, agregometer at 57° C., Table I. The protocol: 1) Inhibition of platelet agregation induced by PAF
This experimentation was conducted according to the method of R. KINLOUGH. RATHBONE, J. P. CAZENAVE, M. PACKHAM and F. MUSTARD, Lab. Invest. 48, 98, 1980. In this test, New Zealand rabbits were used (male New Zealand rabbits of an average weight of 5 kg).
The determinations are made on a chrono-log Coultronics agregometer, at […] coupled with a graphic recorder; the results of these determinations (in molecular concentration) are reported on the table I on the central column.

Another data set has as its target benzodiazepine receptors. Briefly: Inhibition of the binding to benzodiazepine receptors (rat brains). The settings on record: rat brains incubated 1 h 30 at 4° C.; 3H-RO-15-4788 and 3H-RO-5-4864 as tracers; Table I; read-out: BDZ receptors (inhibition of the binding to benzodiazepine receptors). The text has this: 2) Inhibition of the binding to benzodiazepine receptors
The interest of the previous experimentation depends on the results obtained in this experimentation: as a compound of the invention has a benzodiazepine like structure, it is important to check whether the specific benzodiazepine activity would not appear at the dose where platelet agregation was inhibited.
Therefore, this experimentation has been conducted according to the method of MOHLER H. and RICHARD J. G. Agonist and antagonist benzodiazepine receptor intereaction in vitro, Nature, vol. 294, 763°-765, 1981.
This experimentation was conducted on rat brains incubated 1 h 30 at 4° C. using ^3 H-RO-15-4788 and ^3 H-RO-5-4864 (NEN) as tracers and […] and RO-5-4864 as reference antagonists.
The results in molecular concentration are reported in the table I, on the right hand column.

The subject of data set [2] is bronchospasm induced by the PAF. Briefly: Action on the bronchospasm induced by the PAF in anaesthetized guinea-pigs. As to conditions: male Hartley guinea-pigs, oral, 1 hour before PAF i.v.; for Percentage of action: change versus controls; for Percentage of bronchoconstriction: controls 79. ± 5.55, dose not given. It counts as in vivo, guinea-pig. From the text:
3) Action on the bronchospasm induced by the PAF
The PAF intravenous injection in anaesthetized guinea-pigs induces a bronchoconstriction with a leucopeny and a thrombocytopeny, according to the method described in S. DESQUAND, C. TOUVAY, J. RANDON, V. LAGENTE, B. VILAIN, I. MARIDONNEAU-PARINI, A. ETIENNE, J. LEFORT, P. BRAQUET and B. VARGAFTIG. Interference of BN 52021 (Ginkolide B) with the bronchopulmonary effects of PAF-acether in the guinea-pig. Eur. J. Pharmacol. 127: 83-95, 1986.
Male Hartley guinea-pigs (400-450 g) (Charles River) anaesthetized with urethane (2 g/kg IP), then are thracheotomized and submitted to a forced respiration with a breathing pump:70-80 strokes/mn, 1 ml of air/ 100 g per stroke. A catheter is introduced in the jugular vein for the injections, an other is introduced in the carotic artery for blood takings. The initial resistance is kept constant under the pressure of 10 cm of water in accordance with the Konzett and Rossler method and the air in excess is measured with a transducor for bronchospasm UGO BASILE together with an enregistror GEMINI. The guinea-pigs had received an IV injection of pancuronium (Pavulon) to inhibit their spontaneous respiration.
The compound according to the invention and the reference compound WEB 2086 (see the above cited Boehringer patent) have been prepared as suspension in gummy water and administrated orally 1 hour before the stimulation by the PAF.
The bronchoconstriction is appreciated by the calculation of the percentage of bronchoconstriction [formula] wherein A stands for induced bronchoconstriction in mm and B stands for maximum bronchoconstriction in mm.

A short description of the next data set: Toxicity on the mice. As to conditions: mouse, in vivo, IP route.

Take `Cc1nnc2n1-c1sc3c(c1C(c1ccccc1Cl)=NC2)CCN(C(=S)NC(C)C)C3` [Example 1, 6-(2-chlorophenyl)-9-isopropylthiocarbamoyl-7,8,9,10-tetrahydro-1-methyl4H-pyrido[4',3':4,5]thieno[3,2-f]1,2,4-triazolo[4,3-a]1,4-diazepine]: the pIC50 is 7.48 in data set [1] and 5.15 on benzodiazepine receptors. Also, the Percentage of action in data set [2] is on record as -70.4%. The Percentage of bronchoconstriction in data set [2] is 23.4%.

`Cc1nnc2n1-c1sc3c(c1C(c1ccccc1Cl)=NC2)CCN(C(=O)NC(C)(C)C)C3` [Example 3, 6-(2-chlorophenyl)-9-tertbutylcarbamoyl-7,8,9,10-tetra-hydro-1-methyl4H-pyrido[4',3':4,5]thieno[3,2-f]1,2,4-triazolo [4,3-a]1,4-diazepine] showed a pIC50 in data set [1] of 7.77. Further, at benzodiazepine receptors, the pIC50 is 6.37. Besides, in data set [2], the Percentage of action was -63.7% and the Percentage of bronchoconstriction was determined as 28.7%.

For the compound `CCCCCCCCCCCCCCCCNC(=S)N1CCc2c(sc3c2C(c2ccccc2Cl)=NCc2nnc(C)n2-3)C1` [Example 5, 6-(2-chlorophenyl)-9-hexadecylthiocarbamoyl-7,8,9,10-tetrahydro-1-methyl4H-pyrido[4',3':4,5]thieno [3,2-f]1,2,4-triazolo [4,3-a]1,4-diazepine], in data set [1], the pIC50 was 6.53. Further, the pIC50 on benzodiazepine receptors was 4.20. Also, in data set [2], the Percentage of action is -61.6% and the Percentage of bronchoconstriction is 30.3%.

Consider `COc1ccc(NC(=S)N2CCc3c(sc4c3C(c3ccccc3Cl)=NCc3nnc(C)n3-4)C2)cc1` [Example 7, 6-(2-chlorophenyl)-9-(4-methoxy)phenylthiocarbamoyl-7,8,9,10-tetrahydro-1-methyl4H-pyrido[4',3':4,5]thieno[3,2-f]1,2,4-triazolo[4,3-a]1,4-diazepine], for which the pIC50 in data set [1] was 6.52. Moreover, the pIC50 on benzodiazepine receptors was 5.70. Further, in data set [2], the Percentage of action is given as -83.5% and the Percentage of bronchoconstriction is 13 ± 4.39%.

As for `COc1cc(NC(=O)N2CCc3c(sc4c3C(c3ccccc3Cl)=NCc3nnc(C)n3-4)C2)cc(OC)c1OC` [Example 8, 6-(2-chlorophenyl)-9-(3,4,5-trimethoxy)phenylcarbamoyl-7,8,9,10-tetrahydro-1-methyl 4H-pyrido[4',3':4,5]thieno [3,2-f]1,2,4-triazolo [4,3-a]1,4-diazepine], the pIC50 in data set [1] was 7.94. The pIC50 on benzodiazepine receptors is 5.82. In addition, in data set [2], the Percentage of action is on record as -79.5% and the Percentage of bronchoconstriction is on record as 16.2%.

For `Cc1nnc2n1-c1sc3c(c1C(c1ccccc1Cl)=NC2)CCN(C(=O)Nc1ccc(C(C)(C)C)cc1)C3` [Example 10, 6-(2-chlorophenyl)-9-(4-tertbutyl)phenylcarbamoyl-7,8,9,10-tetrahydro-1-methyl 4H-pyrido[4',3':4,5]thieno [3,2-f]1,2,4-triazolo[4,3-a]1,4-diazepine], the pIC50 in data set [1] was 8.06; on benzodiazepine receptors it was 5.28. Moreover, the LD50 (as a rule, the dose expected to kill half of the subjects tested) in “Toxicity on the mice” was in the range of 400 to 1000 mg/kg. Besides, the Percentage of action in data set [2] was -66.2%. Also, the Percentage of bronchoconstriction in data set [2] is reported as 26.7%.

`Cc1nnc2n1-c1sc3c(c1C(c1ccccc1Cl)=NC2)CCN(C(=O)Nc1ccc(C(F)(F)F)cc1)C3` [Example 14, 6-(2-chlorophenyl)-9-(4-trifluoromethyl)phenylcarbamoyl-7,8,9,10-tetrahydro-1-methyl 4H-pyrido[4',3':4,5]thieno[3,2-f]1,2,4-triazolo[4,3-a]1,4-diazepine]: the values for the pIC50 (in data set [1]; at benzodiazepine receptors) were 6.82 and 4.15, respectively. Also, in data set [2], the Percentage of action was -38.5%. This compound displayed a Percentage of bronchoconstriction in data set [2] of 48.6%.

For the compound `Cc1nnc2n1-c1sc3c(c1C(c1ccccc1Cl)=NC2)CCN(C(=O)Nc1cccc(Cl)c1Cl)C3` [Example 17, 6-(2-chlorophenyl)-9-(2,3-dichloro)phenylcarbamoyl-7,8,9,10-tetrahydro-1-methyl 4H-pyrido[4',3':4,5]thieno[3,2-f]1,2,4-triazolo[4,3-a]1,4-diazepine], the pIC50 in data set [1] is 7.26; on benzodiazepine receptors it was 6.04. Besides, the LD50 in “Toxicity on the mice” is 400 to 1000 mg/kg.

In data set [1], `Cc1nnc2n1-c1sc3c(c1C(c1ccccc1Cl)=NC2)CCN(C(=O)Nc1ccc(Oc2ccccc2)cc1)C3` [Example 18, 6-(2-chlorophenyl)-9-(4-phenoxy)phenylcarbamoyl-7,8,9,10-tetrahydro-1-methyl 4H-pyrido[4',3':4,5]thieno[3,2-f]1,2,4-triazolo[4,3-a]1,4-diazepine] had a pIC50 of 7.48. In addition, the LD50 in the data set “Toxicity on the mice” lay in the range of 400 to 1000 mg/kg. For the same compound, on benzodiazepine receptors, the pIC50 is 6.07. Besides, in data set [2], the Percentage of action was -81.8% and the Percentage of bronchoconstriction is on record as 14.1%.

In data set [1], `Cc1nnc2n1-c1sc3c(c1C(c1ccccc1Cl)=NC2)CCN(C(=S)Nc1ccc(C(C)(C)C)cc1C(C)(C)C)C3` [Example 22, 6-(2-chlorophenyl)-9-(2,4-diterbutyl)phenylthiocarbamoyl-7,8,9,10-tetrahydro-1-methyl-4H-pyrido[4',3':4,5]thieno[3,2-f]1,2,4-triazolo[4,3-a]1,4-diazepine] had a pIC50 of 6.44. For the same compound, the pIC50 on benzodiazepine receptors was 6.20. Moreover, in data set [2], the Percentage of action is listed as -67.7% and the Percentage of bronchoconstriction worked out at 25.5%.

In data set [1], `Cc1nnc2n1-c1sc3c(c1C(c1ccccc1Cl)=NC2)CCN(C(=S)NCc1ccco1)C3` [Example 24, 6-(2-chlorophenyl)-9-(2-furfuryl)thiocarbamoyl-7,8,9,10-tetrahydro-1-methyl-4H-pyrido[4',3':4,5]thieno[3,2-f]1,2,4-triazolo[4,3-a]1,4-diazepine] showed a pIC50 of 7.32. On benzodiazepine receptors, the pIC50 is 6.19. Besides, in data set [2], the Percentage of action is -57.9% and the Percentage of bronchoconstriction is 33.3%.

Regarding `Cc1nnc2n1-c1sc3c(c1C(c1ccccc1Cl)=NC2)CCN(C(=S)NS(=O)(=O)c1ccccc1)C3` [Example 30, 6-(2-chlorophenyl)-9-(phenylsulfonyl)thiocarbamoyl-7,8,9,10-tetrahydro-1-methyl-4H-pyrido[4',3':4,5]thieno[3,2-f]1,2,4-triazolo[4,3-a]1,4-diazepine], the pIC50 in data set [1] is 7.96. The pIC50 on benzodiazepine receptors was 6.20. Also, in data set [2], the Percentage of action is listed as -52.9% and the Percentage of bronchoconstriction was 37.2%.

In the case of `Cc1nnc2n1-c1sc3c(c1C(c1ccccc1Cl)=NC2)CCN(C(=S)NS(=O)(=O)c1ccc[nH]1)C3` [Example 33, 6-(2-chlorophenyl)-9-(2-pyrrolylsulfonyl)thiocarbamoyl7,8,9,10-tetrahydro-1-methyl-4H-pyrido[4',3':4,5]thieno[3,2-f]1,2,4-triazolo[4,3-a]1,4-diazepine], the pIC50 in data set [1] is 6.69. This compound showed an LD50 in “Toxicity on the mice” of 400 to 1000 mg/kg. The pIC50 on benzodiazepine receptors is 5.04. Besides, in data set [2], the Percentage of action is on record as -71.7% and the Percentage of bronchoconstriction is recorded as 22.4%.

Regarding `Cc1nnc2n1-c1sc3c(c1C(c1ccccc1Cl)=NC2)CCN(C(=O)NS(=O)(=O)N1CCOCC1)C3` [Example 36, 6-(2-chlorophenyl)-9-(4-morpholinylsulfonyl)carbamoyl-7,8,9,10-tetrahydro-1-methyl-4H-pyrido[4',3':4,5]thieno[3,2-f]1,2,4-triazolo[4,3-a]1,4-diazepine], the pIC50 is 8.21 in data set [1] and 5.14 at benzodiazepine receptors.

For `Cc1nnc2n1-c1sc(CCC(=O)N3CCOCC3)cc1C(c1ccccc1Cl)=NC2` [WEB 2086, reference compound], in data set [2], the Percentage of action is on record as -68.0% and the Percentage of bronchoconstriction was found to be 25.3%.

The values are drawn from US5492906A, “Derivatives of thieno-triazolo-diazepine and therapeutic compositions containing them” (Societe de Conseils de Recherches et d'Applications …, priority 1989, dated 1996).
